Measurements: publication PMC7018746, “An efficient and targeted synthetic approach towards new highly substituted 6-amino-pyrazolo[1,5-a]pyrimidines with α-glucosidase inhibitory activity” (Scientific Reports, 2020)
Where two headings read alike, the source gives them in different places.

Legend:
[1] = target: T1, α-glucosidase (Saccharomyces cerevisiae, EC.3.2.1.20) (Saccharomyces cerevisiae, UniProt P53341); test: biochemical; type: biochemical; details: mean ± SD, at least three experiments, read-out: IC50 (µM), in vitro α-glucosidase inhibitory activity
T1 construct: purchased Sigma-Aldrich
Description: α-Glucosidase enzyme (EC3.2.1.20, Saccharomyces cerevisiae, 20 U/mg) and substrate (p-nitrophenyl glucopyranoside) were purchased from Sigma-Aldrich. […] Finally, the change in absorbance was measured at 405 nm by using spectrophotometer (Gen5, Power wave xs2, BioTek, America). DMSO (10% final concentration) and acarbose were used respectively as control and standard drug. The percentage of enzyme inhibitionwas calculated and IC50 values were obtained from non-linear regression curve using the Logit method.

T1 sequence (P53341 whole entry): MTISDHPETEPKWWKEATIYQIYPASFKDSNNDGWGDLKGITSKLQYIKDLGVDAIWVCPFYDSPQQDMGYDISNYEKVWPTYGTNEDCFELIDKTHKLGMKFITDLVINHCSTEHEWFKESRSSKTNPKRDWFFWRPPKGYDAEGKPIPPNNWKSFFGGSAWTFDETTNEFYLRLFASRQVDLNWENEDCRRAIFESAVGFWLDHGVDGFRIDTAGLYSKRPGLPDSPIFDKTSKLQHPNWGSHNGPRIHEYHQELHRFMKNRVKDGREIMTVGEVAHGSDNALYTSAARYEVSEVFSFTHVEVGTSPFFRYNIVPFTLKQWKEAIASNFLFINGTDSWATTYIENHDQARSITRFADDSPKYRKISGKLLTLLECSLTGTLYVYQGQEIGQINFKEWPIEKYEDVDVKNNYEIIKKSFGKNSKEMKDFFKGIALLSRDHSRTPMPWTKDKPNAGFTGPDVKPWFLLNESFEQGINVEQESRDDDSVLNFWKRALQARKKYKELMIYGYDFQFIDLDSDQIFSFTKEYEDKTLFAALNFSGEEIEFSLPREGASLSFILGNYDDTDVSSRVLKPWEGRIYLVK

Row | IC50 ([1]; Table 1, compounds 3a-z) | melting point | IC50 ([1]; Table 2, compounds 3aa-ai) | Structure (SMILES)
1 | 37.8 ± 2.5 µM | 248 to 249 °C |  | Nc1c(-c2ccccc2)nc2c(C(=O)Nc3ccccc3)c(Nc3ccccc3)nn2c1-c1ccc(Cl)cc1 [3a, 6-Amino-7-(4-chlorophenyl)-N,5-diphenyl-2-(phenylamino)pyrazolo[1,5-a]pyrimidine-3-carboxamide]
2 |  | 180 to 182 °C | 94 ± 3.6 µM | CCOC(=O)c1c(-c2ccccc2)nn2c(-c3ccc(Cl)cc3)c(N)c(-c3ccccc3)nc12 [3aa, Ethyl 6-amino-7-(4-chlorophenyl)-2,5-diphenylpyrazolo[1,5-a]pyrimidine-3-carboxylate]
3 |  | 201 to 202 °C | 150 ± 4 µM | CCOC(=O)c1c(-c2ccccc2)nn2c(-c3ccc(Br)cc3)c(N)c(-c3ccccc3)nc12 [3ab, Ethyl 6-amino-7-(4-bromophenyl)-2,5-diphenylpyrazolo[1,5-a]pyrimidine-3-carboxylate]
4 |  | 221 to 223 °C | 185 ± 6 µM | CCOC(=O)c1c(-c2ccccc2)nn2c(-c3ccc(Cl)cc3)c(N)c(-c3ccc(C)cc3)nc12 [3ac, Ethyl 6-amino-7-(4-chlorophenyl)-2-phenyl-5-p-tolylpyrazolo[1,5-a]pyrimidine-3-carboxylate]
5 |  | 230 to 232 °C | 141 ± 7 µM | CCOC(=O)c1c(-c2ccccc2)nn2c(-c3ccc(Br)cc3)c(N)c(-c3ccc(C)cc3)nc12 [3ad, Ethyl 6-amino-7-(4-bromophenyl)-2-phenyl-5-p-tolylpyrazolo[1,5-a]pyrimidine-3-carboxylate]
6 |  | 189 to 190 °C | 116 ± 1.8 µM | CCOC(=O)c1c(-c2ccccc2)nn2c(-c3ccccc3)c(N)c(-c3ccc(OC)cc3)nc12 [3ae, Ethyl 6-amino-5-(4-methoxyphenyl)-2,7-diphenylpyrazolo[1,5-a]pyrimidine-3-carboxylate]
7 |  | 238 to 239 °C | 201 ± 4.2 µM | CCOC(=O)c1c(-c2ccccc2)nn2c(-c3ccccc3)c(N)c(-c3ccc(Cl)cc3)nc12 [3ag, Ethyl 6-amino-5-(4-chlorophenyl)-2,7-diphenylpyrazolo[1,5-a]pyrimidine-3-carboxylate]
8 |  | 245 to 246 °C | 162 ± 3.2 µM | CCOC(=O)c1c(-c2ccccc2)nn2c(-c3ccc(Cl)cc3)c(N)c(-c3ccc(Cl)cc3)nc12 [3ah, Ethyl 6-amino-5,7-bis(4-chlorophenyl)-2-phenylpyrazolo[1,5-a]pyrimidine-3-carboxylate]
9 |  | 192 to 193 °C | 153 ± 5 µM | CCOC(=O)c1c(-c2ccccc2)nn2c(-c3cccs3)c(N)c(-c3ccc(Cl)cc3)nc12 [3ai, Ethyl 6-amino-5-(4-chlorophenyl)-2-phenyl-7-(thiophen-2-yl)pyrazolo[1,5-a]pyrimidine-3-carboxylate]
10 | 40 ± 2.9 µM | 235 to 237 °C |  | Nc1c(-c2ccccc2)nc2c(C(=O)Nc3ccccc3)c(Nc3ccccc3)nn2c1-c1ccc(Br)cc1 [3b, 6-Amino-7-(4-bromophenyl)-N,5-diphenyl-2-(phenylamino)pyrazolo[1,5-a]pyrimidine-3-carboxamide]
11 | 44.5 ± 3.1 µM | 232 to 233 °C |  | Cc1ccc(-c2nc3c(C(=O)Nc4ccccc4)c(Nc4ccccc4)nn3c(-c3ccc(Cl)cc3)c2N)cc1 [3c, 6-Amino-7-(4-chlorophenyl)-N-phenyl-2-(phenylamino)-5-p-tolylpyrazolo[1,5-a]pyrimidine-3-carboxamide]
12 | 63.3 ± 4.4 µM | 257 to 259 °C |  | COc1ccc(-c2nc3c(C(=O)Nc4ccccc4)c(Nc4ccccc4)nn3c(-c3ccccc3)c2N)cc1 [3e, 6-Amino-5-(4-methoxyphenyl)-N,7-diphenyl-2-(phenylamino)pyrazolo[1,5-a]pyrimidine-3-carboxamide]
13 | 85.7 ± 5.3 µM | 237 to 238 °C |  | COc1ccc(-c2nc3c(C(=O)Nc4ccccc4)c(Nc4ccccc4)nn3c(-c3ccc(Cl)cc3)c2N)cc1 [3f, 6-Amino-7-(4-chlorophenyl)-5-(4-methoxyphenyl)-N-phenyl-2-(phenylamino)pyrazolo[1,5-a]pyrimidine-3-carboxamide]
14 | 75.6 ± 5 µM | 285 to 286 °C |  | Nc1c(-c2ccc(Cl)cc2)nc2c(C(=O)Nc3ccccc3)c(Nc3ccccc3)nn2c1-c1ccccc1 [3g, 6-Amino-5-(4-chlorophenyl)-N,7-diphenyl-2-(phenylamino)pyrazolo[1,5-a]pyrimidine-3-carboxamide]
15 | 25.7 ± 1.1 µM | 281 to 283 °C |  | Nc1c(-c2ccc(Cl)cc2)nc2c(C(=O)Nc3ccccc3)c(Nc3ccccc3)nn2c1-c1ccc(Cl)cc1 [3h, 6-Amino-5,7-bis(4-chlorophenyl)-N-phenyl-2-(phenylamino)pyrazolo[1,5-a]pyrimidine-3-carboxamide]
16 | 28.1 ± 1.2 µM | 270 to 271 °C |  | Nc1c(-c2ccc(Cl)cc2)nc2c(C(=O)Nc3ccccc3)c(Nc3ccccc3)nn2c1-c1cccs1 [3i, 6-Amino-5-(4-chlorophenyl)-N-phenyl-2-(phenylamino)-7-(thiophen-2-yl)pyrazolo[1,5-a]pyrimidine-3-carboxamide]
17 | 30.3 ± 2.1 µM | 217 to 218 °C |  | COc1ccc(NC(=O)c2c(Nc3ccccc3)nn3c(-c4ccc(Cl)cc4)c(N)c(-c4ccccc4)nc23)cc1 [3j, 6-Amino-7-(4-chlorophenyl)-N-(4-methoxyphenyl)-5-phenyl-2-(phenylamino)pyrazolo[1,5-a]pyrimidine-3-carboxamide]
18 | 57.4 ± 3.8 µM | 256 to 258 °C |  | COc1ccc(NC(=O)c2c(Nc3ccccc3)nn3c(-c4ccc(Br)cc4)c(N)c(-c4ccccc4)nc23)cc1 [3k, 6-Amino-7-(4-bromophenyl)-N-(4-methoxyphenyl)-5-phenyl-2-(phenylamino)pyrazolo[1,5-a]pyrimidine-3-carboxamide]
19 | 49.3 ± 3.3 µM | 263 to 265 °C |  | COc1ccc(NC(=O)c2c(Nc3ccccc3)nn3c(-c4ccc(Cl)cc4)c(N)c(-c4ccc(C)cc4)nc23)cc1 [3l, 6-Amino-7-(4-chlorophenyl)-N-(4-methoxyphenyl)-2-(phenylamino)-5-p-tolylpyrazolo[1,5-a]pyrimidine-3-carboxamide]
20 | 42.6 ± 1.1 µM | 248 to 250 °C |  | COc1ccc(NC(=O)c2c(Nc3ccccc3)nn3c(-c4ccccc4)c(N)c(-c4ccc(OC)cc4)nc23)cc1 [3n, 6-Amino-N,5-bis(4-methoxyphenyl)-7-phenyl-2-(phenylamino)pyrazolo[1,5-a]pyrimidine-3-carboxamide]
21 | 56.2 ± 3.2 µM | 268 to 269 °C |  | COc1ccc(NC(=O)c2c(Nc3ccccc3)nn3c(-c4ccc(Cl)cc4)c(N)c(-c4ccc(OC)cc4)nc23)cc1 [3o, 6-Amino-7-(4-chlorophenyl)-N,5-bis(4-methoxyphenyl)-2-(phenylamino)pyrazolo[1,5-a]pyrimidine-3-carboxamide]
22 | 33.2 ± 2.1 µM | 245 to 246 °C |  | COc1ccc(NC(=O)c2c(Nc3ccccc3)nn3c(-c4ccccc4)c(N)c(-c4ccc(Cl)cc4)nc23)cc1 [3p, 6-Amino-5-(4-chlorophenyl)-N-(4-methoxyphenyl)-7-phenyl-2-(phenylamino)pyrazolo[1,5-a]pyrimidine-3-carboxamide]
23 | 36.5 ± 2.5 µM | 245 to 246 °C |  | COc1ccc(NC(=O)c2c(Nc3ccccc3)nn3c(-c4ccc(Cl)cc4)c(N)c(-c4ccc(Cl)cc4)nc23)cc1 [3q, 6-Amino-5,7-bis(4-chlorophenyl)-N-(4-methoxyphenyl)-2-(phenylamino)pyrazolo[1,5-a]pyrimidine-3-carboxamide]
24 | 18.4 ± 0.6 µM | 240 to 242 °C |  | COc1ccc(NC(=O)c2c(Nc3ccccc3)nn3c(-c4cccs4)c(N)c(-c4ccc(Cl)cc4)nc23)cc1 [3r, 6-Amino-5-(4-chlorophenyl)-N-(4-methoxyphenyl)-2-(phenylamino)-7-(thiophen-2-yl)pyrazolo[1,5-a]pyrimidine-3-carboxamide]
25 | 42.3 ± 3.1 µM | 274 to 275 °C |  | Nc1c(-c2ccccc2)nc2c(C(=O)Nc3ccc(Cl)cc3)c(Nc3ccccc3)nn2c1-c1ccc(Cl)cc1 [3s, 6-Amino-N,7-bis(4-chlorophenyl)-5-phenyl-2-(phenylamino)pyrazolo[1,5-a]pyrimidine-3-carboxamide]
26 | 60 ± 4 µM | 294 to 296 °C |  | Nc1c(-c2ccccc2)nc2c(C(=O)Nc3ccc(Cl)cc3)c(Nc3ccccc3)nn2c1-c1ccc(Br)cc1 [3t, 6-Amino-7-(4-bromophenyl)-N-(4-chlorophenyl)-5-phenyl-2-(phenylamino)pyrazolo[1,5-a]pyrimidine-3-carboxamide]
27 | 55.6 ± 3.6 µM | 281 to 282 °C |  | Cc1ccc(-c2nc3c(C(=O)Nc4ccc(Cl)cc4)c(Nc4ccccc4)nn3c(-c3ccc(Cl)cc3)c2N)cc1 [3u, 6-Amino-N,7-bis(4-chlorophenyl)-2-(phenylamino)-5-p-tolylpyrazolo[1,5-a]pyrimidine-3-carboxamide]
28 | 53.7 ± 3.4 µM | 255 to 257 °C |  | COc1ccc(-c2nc3c(C(=O)Nc4ccc(Cl)cc4)c(Nc4ccccc4)nn3c(-c3ccccc3)c2N)cc1 [3w, 6-Amino-N-(4-chlorophenyl)-5-(4-methoxyphenyl)-7-phenyl-2-(phenylamino)pyrazolo[1,5-a]pyrimidine-3-carboxamide]
29 | 80.3 ± 5.2 µM | 255 to 257 °C |  | Nc1c(-c2ccc(Cl)cc2)nc2c(C(=O)Nc3ccc(Cl)cc3)c(Nc3ccccc3)nn2c1-c1ccccc1 [3x, 6-Amino-N,5-bis(4-chlorophenyl)-7-phenyl-2-(phenylamino)pyrazolo[1,5-a]pyrimidine-3-carboxamide]
30 | 38.2 ± 2.8 µM | 268 to 270 °C |  | Nc1c(-c2ccc(Cl)cc2)nc2c(C(=O)Nc3ccc(Cl)cc3)c(Nc3ccccc3)nn2c1-c1ccc(Cl)cc1 [3y, 6-Amino-N,5,7-tris(4-chlorophenyl)-2-(phenylamino)pyrazolo[1,5-a]pyrimidine-3-carboxamide]
